In ChEMBL document CHEMBL3734727, “Metabolomics-Driven Discovery of a Prenylated Isatin Antibiotic Produced by Streptomyces Species MBT28” (2015):
Calls of active or inactive are those of the source. No cut-off for these calls is given here.

How the values were obtained:
[1] = system: Bacillus subtilis; assay: Antibacterial activity against Bacillus subtilis assessed as growth inhibition by microtiter plate-based MIC test
[2] = system: Staphylococcus aureus; assay: Antibacterial activity against Staphylococcus aureus; type: functional, organism-based
[3] = system: Escherichia coli; assay: Antibacterial activity against Escherichia coli K-12; type: functional, organism-based

SMILES: CC(C)=CCc1cccc2c1NC(=O)C2=O
- MIC [1]: 25 µg/mL
- Activity [2]: inactive
- Activity [3]: inactive
